For data set [1] the following is noted: vendor product list; cited from earlier work.
Data set [2] addresses T1, chemically inactivated Taq DNA polymerase (Thermus aquaticus, UniProt P19821). Description: Amplification of bisulphite-treated DNA in the presence of EGTA and different magnesium concentrations. It is filed as biochemical. Particulars: for Ct / Ct Average: 5 mM EGTA. Here is the method: In the follow-up experiment said primers and said bisulphite-treated DNA were used in amplification reactions wherein the magnesium dependency was analyzed.
The final concentration of EGTA was 5 mM. The HRM master mix was supplemented with 0.1 0.6 mM magnesium.
Two sets of reactions consisting of duplicates were used in the amplification experiment. One set of samples was incubated on ice for 120 min, whereas the other set of samples was incubated at room temperature for 120 min. Subsequently the samples were analyzed using the Rotor-Gene Q 5plex HRM System.

The target of the next data set is Taq (Thermus aquaticus, UniProt P19821). Description: Endpoint PCR (HugI, 1.2 kb genomic target) with and without EGTA, agarose gel. It is filed as biochemical. Particulars: 5 mM EGTA, 5-10 mM Mg, compared to reactions without EGTA. Here is the method:
An amplification experiment was performed using a test system that is known to be prone to produce non-specific side products. A genomic DNA sequence of 1.2 kb was the target sequence. Primers HugA and HugB were used.
Reactions with and without EGTA were performed in parallel. In set A, the magnesium concentration was varied in 1 mM steps, start and end point were 5 and 10 mM respectively. In set B, the start point was 0.5 mM and the end point was 4 mM Mg. The setup is described in Table 2.
The amplification program was as follows (Table 3):
35 cycles were performed.

For data set [3], the target named is T1, chemically inactivated Taq DNA polymerase. Nature of the data set: Amplification of bisulphite-treated DNA in the presence of different EGTA concentrations (residual activity of chemically inactivated Taq, Ct and HRM melting curves). It is filed as biochemical. An excerpt:
The following experiments employed a system to detect the formation of primer dimers in a PCR reaction mixture using residual active Taq polymerase molecules. Herein, bisulphite-treated DNA is used as a template. As a consequence of the bisulphite treatment, which entails the chemical modification of non-methylated cytosines to uracil), said template only consists of three bases. Since bisulphite treatment only works when using single stranded DNA, the majority of DNA after completion of said bisulphite treatment is single stranded. Primers that are used for amplification of such DNA sequences are characterized by reduced complexity since they only consist of three bases.
Genomic DNA was propagated using the Qiagen REPLI g Midi Kit according to the manufacturer's protocol. Subsequently, 1 μg of said genomic DNA was used in 10 independent reactions wherein the DNA was subjected to bisulphite treatment using the EpiTect Bisulfite Kit followed by purification. The resulting DNA of each reaction was pooled and used in the subsequent amplification reactions.
The final EGTA concentration was between 0.25 and 10 mM.
One set of samples consisting of two reactions was incubated on ice for 120 min, whereas the other set of samples also consisting of two reactions was incubated at room temperature for 120 min. Subsequently both sets of samples were analyzed using the Rotor-Gene Q 5plex HRM System.

Data set [4] has as its target DNase, a nuclease isolated from bovine pancreas (Bos taurus, UniProt P00639). Particulars: for DNase enzymatic activity: 100 μM EDTA.
Data set [5] can be described thus: pH-dependency of the binding constants of chelating agents. It is filed as physicochemical. The following applies: worked out from known pK values from literature (FIG. 1). As for the experimental part: Tris buffer is routinely used in PCR buffers. At room temperature the pH of a Tris based PCR buffer is 8.7. […] This means that at 95° C. the pH value is 6.6. In order to select a chelating agent for PCR experiments, the pH-dependency of the binding constants of three different chelating agents, NTA; EDTA and EGTA, was investigated. Known pK values from literature for every chelating agent were used to determine the pH dependency of the complex formation (FIG. 1).

The conditions of data set [6]: for pH of Tris based PCR buffer: room temperature.
Where [7] appears, read: 0 mM MgCl2 added, on ice 120 min.
Where [8] appears, read: 0 mM MgCl2 added, room temperature 120 min.
The mark [9] stands for this setting: 0.1 mM MgCl2, room temperature 120 min.
[10] abbreviates: 0.2 mM MgCl2, room temperature 120 min.
Setting [11] is: 0.3 mM MgCl2, room temperature 120 min.
Setting [12] is: 0.4 mM MgCl2, room temperature 120 min.
[13] abbreviates: 0.5 mM MgCl2, room temperature 120 min.
Where [14] appears, read: 0.6 mM MgCl2, room temperature 120 min.
Where [15] appears, read: 0.25 mM EGTA, room temperature 120 min.
Where [16] appears, read: 0.5 mM EGTA, room temperature 120 min.
The mark [17] stands for this setting: 0.75 mM EGTA, room temperature 120 min.
Setting [18] is: 1 mM EGTA, room temperature 120 min.
Setting [19] is: 1.5 mM EGTA, room temperature 120 min.
The mark [20] stands for this setting: 2 mM EGTA, room temperature 120 min.
Setting [21] is: 4 mM EGTA, room temperature 120 min.
Where [22] appears, read: 10 mM EGTA, room temperature 120 min.

The source of these data is patent publication US11519025B2, “Cation chelator hot start” (priority 2014, dated 2022).

The pKa is the pH at which an ionisable group is half protonated.

Values joined by “and” are separate entries in the source; they are usually repeats but may differ in a detail not shown here. Identical values can stand only once. “Also recorded” adds a separate entry of the source. Counter-ions that a name gives are not always drawn. Like-named read-outs stand apart in the source and are kept apart here.

DNase, a nuclease isolated from bovine pancreas, sequence (P00639 23-282): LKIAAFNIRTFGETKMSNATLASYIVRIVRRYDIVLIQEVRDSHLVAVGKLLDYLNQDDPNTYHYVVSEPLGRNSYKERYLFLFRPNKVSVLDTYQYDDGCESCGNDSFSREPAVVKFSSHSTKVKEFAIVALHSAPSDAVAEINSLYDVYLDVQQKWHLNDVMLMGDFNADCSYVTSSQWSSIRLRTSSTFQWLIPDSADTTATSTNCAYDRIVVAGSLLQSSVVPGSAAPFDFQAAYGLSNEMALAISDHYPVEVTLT
T1 sequence (P19821 whole entry): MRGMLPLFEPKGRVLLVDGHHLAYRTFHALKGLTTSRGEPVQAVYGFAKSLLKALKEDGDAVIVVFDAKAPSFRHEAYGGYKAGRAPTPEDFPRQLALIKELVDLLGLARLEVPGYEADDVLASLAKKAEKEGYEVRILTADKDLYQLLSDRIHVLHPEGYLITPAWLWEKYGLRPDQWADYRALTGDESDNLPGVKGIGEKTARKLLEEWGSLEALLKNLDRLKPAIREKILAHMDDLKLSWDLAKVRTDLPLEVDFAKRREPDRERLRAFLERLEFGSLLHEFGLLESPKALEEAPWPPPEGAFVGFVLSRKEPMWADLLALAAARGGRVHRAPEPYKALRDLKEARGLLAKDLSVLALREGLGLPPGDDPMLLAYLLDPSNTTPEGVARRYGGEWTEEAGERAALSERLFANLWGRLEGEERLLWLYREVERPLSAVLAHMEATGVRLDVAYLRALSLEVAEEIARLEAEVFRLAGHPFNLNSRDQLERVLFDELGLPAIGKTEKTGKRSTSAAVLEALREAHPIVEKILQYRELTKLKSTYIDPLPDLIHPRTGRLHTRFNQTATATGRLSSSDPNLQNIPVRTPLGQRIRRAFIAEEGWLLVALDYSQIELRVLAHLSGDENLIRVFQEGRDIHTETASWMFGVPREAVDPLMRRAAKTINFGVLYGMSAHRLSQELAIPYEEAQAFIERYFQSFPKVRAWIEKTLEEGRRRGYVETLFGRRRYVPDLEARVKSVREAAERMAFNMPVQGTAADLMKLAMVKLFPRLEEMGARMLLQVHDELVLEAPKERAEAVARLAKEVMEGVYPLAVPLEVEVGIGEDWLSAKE
Taq, sequence (P19821 whole entry): as above

For `NC(=O)CNCCS(=O)(=O)O` [Buffer 1, ACES], the pKa in data set [1] is reported as 6.80.
With `O=S(=O)([O-])CCCNC(CO)(CO)CO.[Na+]` [Buffer 23, TAPS sodium salt], in data set [1], the pKa is on record as 8.40.
Consider `O=S(=O)(O)CCNC(CO)(CO)CO` [Buffer 24, TES], for which the pKa in data set [1] is 7.50.
`O=S(=O)(O)CCN1CCN(CCS(=O)(=O)O)CC1` [Buffer 17, PIPES]: the pKa in data set [1] was 6.80.
Take `OCC(CO)(CO)NCCCNC(CO)(CO)CO` [Buffer 4, BIS-TRIS propane]: in data set [1], the pKa was 6.80.
`O=C(O)CN(CCOCCOCCN(CC(=O)O)CC(=O)O)CC(=O)O` [EGTA, ethylene glycol bis(amino ethyl) N, N′-tetra acetic acid]: the Ct is 28.74 and 28.89 in data set [2] (setting [7]); 28.86 and 28.67 in data set [2] (setting [8]); 27.82 and 27.79 in data set [2] (0.1 mM MgCl2, on ice 120 min); 27.53 and 27.71 in data set [2] (setting [9]); 26.85 and 27.39 in data set [2] (0.2 mM MgCl2, on ice 120 min); 26.69 and 27.27 in data set [2] (setting [10]). The Ct was 26.25 and 26.51 in data set [2] (0.3 mM MgCl2, on ice 120 min); 26.14 and 26.64 in data set [2] (setting [11]); 26.01 and 26.14 in data set [2] (0.4 mM MgCl2, on ice 120 min); 26.06 and 26.24 in data set [2] (setting [12]); 25.81 and 25.89 in data set [2] (0.5 mM MgCl2, on ice 120 min); 25.82 and 25.86 in data set [2] (setting [13]). Also, the Ct is 25.61 and 25.56 in data set [2] (0.6 mM MgCl2, on ice 120 min); 25.55 and 25.49 in data set [2] (setting [14]); 25.34 and 25.51 in data set [3] (0.25 mM EGTA, on ice 120 min); 25.2 and 25.42 in data set [3] (setting [15]); 25.53 and 25.62 in data set [3] (0.5 mM EGTA, on ice 120 min); 25.55 and 25.47 in data set [3] (setting [16]). Also, the Ct in data set [3] (0.75 mM EGTA, on ice 120 min) is 25.78 and 25.88; in data set [3] (setting [17]), 25.91 and 25.8; in data set [3] (1 mM EGTA, on ice 120 min), 26.59 and 26.61; in data set [3] (setting [18]), 26.47 and 26.5; in data set [3] (1.5 mM EGTA, on ice 120 min), 28.17 and 28.21; in data set [3] (setting [19]) it was 27.76 and 27.88. The Ct in data set [3] (2 mM EGTA, on ice 120 min) is 30.16 and 28.53; in data set [3] (setting [20]), 29.9 and 29.71; in data set [3] (4 mM EGTA, on ice 120 min) it was 38.37 and 38.14; in data set [3] (setting [21]), 37.32 and 37.02; in data set [3] (setting [22]), 35.18 and 34. Besides, the “Ct Average” value in data set [2] (setting [7]) was 28.82; in data set [2] (setting [8]) it was 28.77; in data set [2] (0.1 mM MgCl2, on ice 120 min), 27.81; in data set [2] (setting [9]) it was 27.62; in data set [2] (0.2 mM MgCl2, on ice 120 min), 27.12; in data set [2] (setting [10]), 26.98. Further, the “Ct Average” value in data set [2] (0.3 mM MgCl2, on ice 120 min) is given as 26.38; in data set [2] (setting [11]), 26.39; in data set [2] (0.4 mM MgCl2, on ice 120 min), 26.08; in data set [2] (setting [12]), 26.15; in data set [2] (0.5 mM MgCl2, on ice 120 min), 25.85; in data set [2] (setting [13]), 25.84. Also, the “Ct Average” value in data set [2] (0.6 mM MgCl2, on ice 120 min) was determined as 25.59; in data set [2] (setting [14]), 25.52; in data set [3] (0.25 mM EGTA, on ice 120 min), 25.43; in data set [3] (setting [15]), 25.31; in data set [3] (0.5 mM EGTA, on ice 120 min) it was 25.58; in data set [3] (setting [16]) it was 25.51. Besides, the “Ct Average” value in data set [3] (0.75 mM EGTA, on ice 120 min) is recorded as 25.83; in data set [3] (setting [17]), 25.86; in data set [3] (1 mM EGTA, on ice 120 min), 26.55; in data set [3] (setting [18]), 26.49; in data set [3] (1.5 mM EGTA, on ice 120 min) it was 28.19; in data set [3] (setting [19]), 27.82. Moreover, the “Ct Average” value in data set [3] (2 mM EGTA, on ice 120 min) came out at 29.35; in data set [3] (setting [20]), 29.81; in data set [3] (4 mM EGTA, on ice 120 min), 38.26; in data set [3] (setting [21]), 37.13; in data set [3] (setting [22]), 34.59. Further, the specificity of amplification result in data set [2] (EGTA up to a final concentration of 5 mM) was “increased specificity”. Besides, the “specificity of PCR (side products on agarose gel)” value at Taq is recorded as “more specific as of having less side products; also recorded: results in specific PCR product”. In addition, the success of amplification entry in data set [3] (EGTA concentrations exceeded 2 mM) was “successful amplification was prevented”. The “specificity of amplification and effect on Ct” value in data set [3] (EGTA up to a final concentration of 0.75 mM) was “increase of specificity without affecting the Ct values”. Besides, the DNase activity result in data set [4] (100 μM EGTA, 42° C.) was “largely restored DNase activity”. The “DNA degradation by DNase” value in data set [4] (100 μM EGTA, on ice, 0.01, 0.1 and 1 U DNase, 5 and 15 min) is on record as “almost complete inhibition of degradation”; in data set [4] (100 μM EGTA, on ice, 1 U DNase for 15 min, compared to the sample without EGTA) it was “degradation is significantly reduced”. The “correlation between pH value and binding constant” value in data set [5] was “strong correlation between pH value and binding constant”.
As to `O=C(O)CN(CCN(CC(=O)O)CC(=O)O)CC(=O)O` [EDTA, ethylene di amine tetra acetic acid], the DNase enzymatic activity entry in data set [4] (42° C.) was “restoring enzymatic activity”; in data set [4] (on ice, 1, 0.5, 0.1 U DNase), “largely reduced enzymatic activity”.
With `O=S(=O)(O)CCN(CCO)CCO` [Buffer 2, BES], the pKa in data set [1] was 7.10.
On to `O=S(=O)(O)CCN1CCN(CCO)CC1` [Buffer 8, HEPES sodium salt], for which, in data set [1], the pKa is given as 7.50.
In the case of `O=S(=O)(O)CCN1CCN(CCO)CC1` [Buffer 7, HEPES], the pKa in data set [1] is 7.50.
Turning to `NC(CO)(CO)CO` [Tris], in data set [6] (95° C.), the “pH of Tris buffer” value worked out at 6.6. Besides, the “pH of Tris based PCR buffer” value in data set [6] is 8.7; in data set [6] (listed as Tris buffer), “around 8.7”.
As for `O=S(=O)(O)CCCNC(CO)(CO)CO` [Buffer 22, TAPS], in data set [1], the pKa was 8.40.
In the case of `O=S(=O)(O)CCCN1CCN(CCO)CC1` [Buffer 5, EPPS], in data set [1], the pKa was 8.00.
